Measurements taken from the supplement of paper PMC10307832.

Compound: CCn1c(-c2nonc2N)nc2c(C#CC(C)(C)O)ncc(OC[C@H]3CCCNC3)c21 + Nc1nc2[nH]cc(CCc3ccc(C(=O)N[C@@H](CCC(=O)O)C(=O)O)cc3)c2c(=O)[nH]1 [Pemetrexed] (partner 0.2 µM)
Assay: relative viability (nuclei count vs DMSO), 5 days (fraction); higher = more cells survive
Details: first compound 0.3162 µM
Summary of the method: (§1)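 Lung cancer cell lines were pin-tool dosed in 1536-well plates on the day after seeding, with either a lone drug or a fixed anchor-drug dose plus five library-drug doses (not always all listed) in √10 steps. Nuclei were counted on 4× images after 5 days. Relative viability is the ratio of treated-well to vehicle-well nuclei counts, with each value a median of duplicate plates.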

Cell Line | relative viability
NCI-H1648 | 0.664
NCI-H661 | 0.713
NCI-H1792 | 0.782
NCI-H1563 | 0.702
NCI-H358 | 0.182
NCI-H650 | 1.02

Same assay, conditions: first compound 1 µM

Cell Line | relative viability
NCI-H522 | 1.17
NCI-H1650 | 0.348
NCI-H1993 | 0.519
SW 1573 | 0.736
NCI-H838 | 0.255
LCLC-103H | 0.439
NCI-H520 | 0.352
NCI-H2126 | 0.669
EMC-BAC-2 | 0.427
NCI-H2085 | 0.992
HCC-366 | 0.182
NCI-H1666 | 0.907
NCI-H596 | 0.5
LK-2 | 0.234
NCI-H2087 | 0.613
NCI-H2342 | 0.8
SK-MES-1 | 0.983
H3255 | 0.548
COR-L23 | 0.196
HCC-44 | 0.636
SW 900 | 0.499
NCI-H1648 | 0.723
NCI-H661 | 0.926
NCI-H1792 | 0.687
NCI-H1563 | 0.854
NCI-H358 | 0.166
NCI-H650 | 0.919

Compound: CCn1c(-c2nonc2N)nc2c(C#CC(C)(C)O)ncc(OC[C@H]3CCCNC3)c21 + CC1(C)CCC(c2ccc(Cl)cc2)=C(CN2CCN(c3ccc(C(=O)NS(=O)(=O)c4ccc(N[C@H](CCN5CCOCC5)CSc5ccccc5)c(S(=O)(=O)C(F)(F)F)c4)cc3)CC2)C1 [Navitoclax] (partner 0.5 µM)
Assay: as above
Details: first compound 0.01 µM
Summary of the method: as §1

Cell Line | relative viability
NCI-H727 | 0.387
NCI-H1650 | 1.2
EBC-1 | 0.393
NCI-H1703 | 1.12
NCI-H1993 | 0.943
SW 1573 | 0.895
NCI-H838 | 1.15
NCI-H520 | 1.05
NCI-H2126 | 0.908
EMC-BAC-2 | 1.17
NCI-H2085 | 1.12
Calu-6 | 0.75
HCC-366 | 0.967
NCI-H1666 | 0.881
NCI-H596 | 0.914
LK-2 | 0.787
NCI-H2087 | 0.832
SK-MES-1 | 1.22
H3255 | 0.526
COR-L23 | 0.838
IA-LM | 0.76
HCC-44 | 0.938
A549 | 1.16
NCI-H1299 | 1.04
NCI-H1792 | 0.722

Same assay, conditions: first compound 0.03162 µM

Cell Line | relative viability
NCI-H727 | 0.376
NCI-H1650 | 1.04
EBC-1 | 0.433
NCI-H1703 | 0.959
NCI-H1993 | 1.01
SW 1573 | 0.859
NCI-H838 | 1.22
NCI-H520 | 1.11
NCI-H2126 | 0.848
EMC-BAC-2 | 1.18
NCI-H2085 | 1.09
Calu-6 | 0.797
HCC-366 | 1.1
NCI-H1666 | 0.835
NCI-H596 | 0.96
LK-2 | 0.927
NCI-H2087 | 1.08
SK-MES-1 | 1.22
H3255 | 0.571
COR-L23 | 1.05
IA-LM | 0.66
HCC-44 | 0.956
A549 | 1.35
NCI-H1299 | 1.06
NCI-H1792 | 0.501

Same assay, conditions: first compound 0.1 µM

Cell Line | relative viability
NCI-H727 | 0.563
NCI-H1650 | 1.03
EBC-1 | 0.358
NCI-H1703 | 0.857
NCI-H1993 | 1.04
SW 1573 | 0.934
NCI-H838 | 1.2
NCI-H520 | 1.05
NCI-H2126 | 0.847
EMC-BAC-2 | 1.15
NCI-H2085 | 1.1
Calu-6 | 0.827
HCC-366 | 1.01
NCI-H1666 | 0.699
NCI-H596 | 0.934
LK-2 | 0.77
NCI-H2087 | 0.961
SK-MES-1 | 1.18
H3255 | 0.429
COR-L23 | 1.01
IA-LM | 0.929
HCC-44 | 0.944
A549 | 1.28
NCI-H1299 | 1.02
NCI-H1792 | 0.619

Same assay, conditions: first compound 0.3162 µM

Cell Line | relative viability
NCI-H727 | 0.373
NCI-H1650 | 0.894
EBC-1 | 0.235
NCI-H1703 | 1.04
NCI-H1993 | 0.767
SW 1573 | 0.943
NCI-H838 | 1.03
NCI-H520 | 0.934
NCI-H2126 | 0.927
EMC-BAC-2 | 1.07
NCI-H2085 | 1.08
Calu-6 | 0.86
HCC-366 | 1.06
NCI-H1666 | 0.904
NCI-H596 | 1
LK-2 | 0.872
NCI-H2087 | 1.03
SK-MES-1 | 1.22
H3255 | 0.407
COR-L23 | 0.968
IA-LM | 0.576
